Results on five compounds are retold here after patent publication US20070219117A1, “BIDENTATE MOTIF AND METHODS OF USE” (MEDVET SCIENCE PTY LTD, priority 2003, published 2007).

Format in all cases: cell-based
The subject of assay [1] is primary human neutrophils. Description: Survival of primary human neutrophils, annexin V-FITC. The note with it: for cell survival: neutrophils; for effect on neutrophil survival in response to low concentrations of GM-CSF: 15 μM inhibitor. How it is done:
Survival was determined by annexin V-FITC (Roche) staining essentially as previously described (Guthridge et al., 2000). […] After 48 hours, cells were stained with the 4H1 anti-GMRα mAb and annexin V-FITC. The proportion of GMRα-positive cells remaining viable (annexin V-FITC-negative) after culture was analysed by flow cytometry. […] In some experiments forskolin ICN Biochemicals), H89 (Seikaguku Corporation), LY294002 (Cayman Chemical Company), genestein (Sigma) or AG490 (Biomol) were used.

The subject of assay [2] is βc subunit of the GM-CSF receptor (Ser585, Tyr577). The experiment in a line: βc immunoprecipitation and phospho-specific immunoblot in TF-1 cells after GM-CSF titration. How it is done: (§1) Cells were factor-deprived in RPMI containing 0.1% FCS for 24 h and then stimulated for 10 min with different GM-CSF concentrations before lysis as previously described (Guthridge et al., 2000). Human mononuclear cells from normal donors and from leukemic patients were separated from peripheral blood by centrifugation over ficoll. The βc subunit was immunoprecipitated using a mixture of 1C1 and 8E4 anti-βc mAb (1C1/8E4)(1 μg each/immunoprecipitation) and immunoprecipitates subjected to SDS-PAGE and immunoblot analysis. Affinity purified anti-14-3-3 pAb (EB1) were used at a dilution of 1:5000 (Guthridge et al., 2000). Anti-MAP2 mAb (MK12)(Pharmingen) was used at a dilution of 1:5000. Anti-p85 pAb antibodies (UBI) were used at a dilution of 1:1000. The 4G10 anti-phosphotyrosine mAb (UBI) was used at 1 pg/ml. The anti-active-ERK pAb (Promega) was used at 50 ng/ml, the anti-phosphorylated STAT5 mAb (Zymed) was used at 2 μg/ml, the anti-phospho-JAK2 pAb (Affinity Bioreagents) was used at 0.5 μg/ml. Affinity purified anti-βc phospho-577 pAb (Guthridge et al., 2004) were used at a dilution of 1:1000. Antibodies to phospho-Ser585 of βc (Guthridge et al., 2000) were used at a dilution of 1:5000. The phosphorylation of Akt in response to GM-CSF was examined in CTL-EN cells electroporated with the pCMV-AKT-HA plasmid (30 μg DNA/1×10^7 cells)(kindly provided by P. N. Tsichlis). 24 h after electroporation the cells were factor-deprived overnight in DMEM/0.5% FCS. Cells were then stimulated (10^7 cells/time point) with either 1 pM or 1000 pM GM-CSF and lysed in RIPA buffer (150 mM NaCl, 1.0% NP40, 0.5% Deoxycholate, 0.1% SDS, 50 mM Tris pH8.0) and subjected to SDS-PAGE and immunoblot analysis with the anti-phospho-Akt Ser473 pAb (1:1000)(Cell Signalling Technologies).

The test system of the next assay is JAK2, STAT5 and ERK. The experiment in a line: Immunoblot of TF-1 lysates for phospho-JAK2, phospho-STAT5 and active ERK. The note with it: also βc tyrosine phosphorylation and p85 recruitment. As for the experimental part: as §1, with “24 h after electroporation the cells were factor-deprived overnight in DMEM/0.5% FCS. Cells were then stimulated (10^7 cells/time point) with either 1 pM or 1000 pM GM-CSF and lysed in RIPA buffer (150 mM NaCl, 1.0% NP40, 0.5% Deoxycholate, 0.1% SDS, 50 mM Tris pH8.0) and subjected to SDS-PAGE and immunoblot analysis with the anti-phospho-Akt Ser473 pAb (1:1000)(Cell Signalling Technologies).” left out

Another assay concerns PKA. Description: Protein kinase A (PKA) kinase assay in TF-1 cells. The note with it: 1 pM GM-CSF, up to 30 min, compared with 1000 pM. As for the experimental part:
TF-1 cells were factor-deprived overnight in DMEM containing 0.5% FCS. Cells (4×10^6) were stimulated with GM-CSF or forskolin before lysis in 1 ml 20 mM Tris HCl pH 7.4, 0.5 mM EDTA, 0.5 mM EGTA, 10 mM 2-mercaptoethanol, 5% Glycerol and 2 mM NaF by 20 strokes of a dounce homogenizer on ice. The lysate was centrifuged at 170 g for 15 min and the supernatant then centrifuged at 100,000 g for 1 h at 4° C. The resulting pellet was resuspended in NP40 lysis buffer with a protease/phosphatase inhibitor cocktail (Guthridge et al., 2000; Guthridge et al., 2004). Lysate (2 μl) was then tested for PKA activity by adding 40 μM kemptide, 0.25 μCi [y-^32P] ATP, 1 μM cold ATP, in a buffer containing 10 mM MgCl2, 10 mM Tris HCl pH7.4, 1 mM β-glycerol phosphate and 1 mM DTT. Reactions (20 μl) were incubated at 30° C. for 30 min and aliquots were examined for 32P-labelled kemptide on p81 phosphocellulose filters (Whatman) and liquid scintillation counting (Guthridge et al., 2000).

A further assay has as its system Akt. The experiment in a line: Akt Ser473 phosphorylation immunoblot in CTL-EN cells expressing the wt GM-CSF receptor. The note with it: 1 pM GM-CSF, compared with 1000 pM GM-CSF. How it is done: as §1, with “24 h after electroporation the cells were factor-deprived overnight in DMEM/0.5% FCS. Cells were then stimulated (10^7 cells/time point) with either 1 pM or 1000 pM GM-CSF and lysed in RIPA buffer (150 mM NaCl, 1.0% NP40, 0.5% Deoxycholate, 0.1% SDS, 50 mM Tris pH8.0) and subjected to SDS-PAGE and immunoblot analysis with the anti-phospho-Akt Ser473 pAb (1:1000)(Cell Signalling Technologies).” left out
(In general: Immunoblotting shows a protein as a band on a membrane.)

A further assay has as its system TF-1 cells. Description: TF-1 cell survival, annexin V-FITC flow cytometry. The note with it: data not shown. How it is done: Survival was determined by annexin V-FITC (Roche) staining essentially as previously described (Guthridge et al., 2000). Briefly, transduced fetal liver cells were plated in IMDM and either 0.1% or 10% FCS containing either no GM-CSF, […] hGM-CSF or a positive control cytokine cocktail containing 50 ng/ml IL-6 (Peprotech), 100 ng/ml mouse SCF and 10 ng/ml G-CSF (Amgen). After 48 hours, cells were stained with the 4H1 anti-GMRα mAb and annexin V-FITC. The proportion of GMRα-positive cells remaining viable (annexin V-FITC-negative) after culture was analysed by flow cytometry. The regulation of TF-1 cell survival by GM-CSF was determined as previously described (Guthridge et al., 2000; Guthridge et al., 2004). To examine the survival of primary human neutrophils in response to GM-CSF, we modified our previously described assay (Begley et al., 1986). Neutrophils purified by centrifugation through Lymphoprep (Axis-Shield) were plated at 1.5×10^5 cells/ml in IMDM/0.5% FCS containing different concentrations of GM-CSF and cell survival was examined as previously described (Guthridge et al., 2000). In some experiments forskolin ICN Biochemicals), H89 (Seikaguku Corporation), LY294002 (Cayman Chemical Company), genestein (Sigma) or AG490 (Biomol) were used.
In general terms: In flow cytometry, cells or beads pass a laser one at a time.

Entries after “also recorded” stand apart in the source; their conditions may differ. A value given as a limit tells only on which side of the number the result lay.

“GM-CSF: cytokine; human GM-CSF used to stimulate cells via the GM-CSF receptor” registered a cell survival in assay [1] (0.1 pM GM-CSF) of 90%. Besides, the cell survival in assay [1] (1 pM GM-CSF) is given as 83%. Moreover, in assay [2] (TF-1 cells, 10 min stimulation), the “GM-CSF concentration at which Tyr577 phosphorylation was detectable” value was “greater than 10 pM”, the “GM-CSF concentration at which phosphorylation of Ser585 decreased” value was 10 pM, the “GM-CSF concentration at which phosphorylation of Ser585 increased” value was below 3 pM and the “GM-CSF concentration at which phosphorylation of Ser585 was virtually absent” value is “over 100 pM”. The “GM-CSF concentration that promotes Ser585 phosphorylation, 14-3-3 binding and p85 recruitment” value in assay [2] (low concentration signal) is listed as below 3 pM. Besides, the “GM-CSF concentration resulting in phosphorylation of JAK2, STAT5 and ERK” value with JAK2, STAT5 and ERK is above 10 pM. Further, the PKA activity entry in the assay with PKA is “higher and more sustained”. Besides, the “phosphorylation of Ser473 of Akt” value with Akt is “the magnitude was reduced and the kinetics were delayed”.

As to `O=c1c(-c2ccc(O)cc2)coc2cc(O)cc(O)c12` [genestein], the “effect on neutrophil survival in response to low concentrations of GM-CSF” value in assay [1] is recorded as “Neither inhibitor was able to block”.

With `C=C[C@@]1(C)CC(=O)[C@]2(O)[C@@]3(C)[C@@H](O)CCC(C)(C)[C@@H]3[C@H](O)[C@H](OC(C)=O)[C@@]2(C)O1` [forskolin], the cell survival in assay [1] (forskolin in the absence of GM-CSF (from 27% without)) was 46%.

In the case of `O=S(=O)(NCCNC/C=C/c1ccc(Br)cc1)c1cccc2cnccc12` [H89], the “effect on ability of GM-CSF to promote survival in TF-1 cells” value in the assay on TF-1 cells is reported as “reduced”. The “effect on GM-CSF-promoted survival of neutrophils” value in assay [1] (neutrophils stimulated with GM-CSF) is reported as “reduced”.

In the case of `N#C/C(=C/c1ccc(O)c(O)c1)C(=O)NCc1ccccc1` [AG490], the “effect on neutrophil survival in response to low concentrations of GM-CSF” value in assay [1] is on record as “Neither inhibitor was able to block; also recorded: survival was increased”.
